Patent publication US11325940B2, “Certain chemical entities, compositions, and methods” (NeuPharma, Inc., priority 2012, dated 2022)
pIC50: −log10 of the molar value. Values after ≈ are worked out from the molar mass of the structure shown. Like-named read-outs stand apart in the source and are kept apart here.

What was measured:
[1] = Equilibrium solubility in aqueous buffer (HPLC UV); type: physicochemical; settings: thermodynamic from solid
Procedure: The equilibrium solubility of compounds was measured in aqueous buffer. Excess amount of solid compound was added into buffer solution and the sample was briefly sonicated and then shaken at rt for 24 h. The sample was filtered and the concentration was analyzed by HPLC UV. A standard solution at 0.2 mg/mL was prepared in methanol or acetonitrile for each compound and used as an external standard for quantification. The scale utilized in Tables 2 is as follows: +++ greater than 1 mg/mL; ++ between 1 and 0.1 mg/mL; and + less than 0.1 mg/mL.

A549 cells = assay: Inhibition of cancer cell growth, MTT assay; type: cell-based; settings: Homo sapiens; A549 cells, 72 h compound exposure, MTT; read-out: IC50
Procedure: Inhibition of cell growth by compounds was measured using MTT assay (Mosmann, T., Journal of Immunological Methods, 1983, 65, 55-63). Tumor cell lines were purchased from ATCC (American Type Culture Collection, Manassas, Va.). All cell lines were maintained in RPMI 1640 (Hyclone) supplemented with 10% fetal bovine serum (FBS, Hyclone), glutamine (2 mM, Hyclone), and antibiotics (penicillin 100 U/mL and streptomycin 50 μg/mL) at 37° C. in a humidified atmosphere of 5% CO2 in air. Taxol (as a positive control, Sigma) and compounds were dissolved in DMSO (Sigma), and the final concentration of DMSO in the medium was 1%. Tumor cells were plated in 96-well plates at densities of about 4000 cells/well of a 96-well plate and allowed to adhere/grow for 24 h. They were then treated with various concentrations of drug for 72 h. 3-(4,5-Dimethylthiazol-2-yl)-2,5-diphenyltetrazolium bromide (MTT, Sigma) was used to determine the number of viable cells at the time of compound addition and the number of cells remaining after 72 h compound exposure. The number of cells remaining after 72 h was compared to the number of viable cells at the time of compound addition by measuring the absorbance at 570 nm, allowing for the calculation of growth inhibition.
All concentrations of compounds were tested in triplicate and controls were averaged over 4 wells. IC50 was calculated by plotting the concentration of compound vs the percentage of inhibition in treated wells using GraphPad Prism 5. […] The scale utilized in Table 3 is as follows: ++++ less than 20 nM; +++ between 20 nM and 100 nM; ++ between 100 nM and 1000 nM; and + greater than 1000 nM.

[2] = aqueous buffer, equilibrium solubility, NaOAc/AcOH buffer (100 mM, pH 5.0), rt, 24 h, read-out: Solubility

Row | SMILES | solubility at 24 h [1, 2] [µg/mL] | pIC50 (A549 cells) | solubility at 24 h ([1]; pH 5, aqueous buffer) [µg/mL]
1 | C[C@]12CC[C@H](NC(=O)N3CCNCC3)C[C@H]1CC[C@@H]1[C@@H]2CC[C@]2(C)[C@@H](c3ccc(=O)oc3)CC[C@]12O [Compound C04, N-((3S,5R,8R,9S,10S,13R,14S,17R)-14-hydroxy-10,13-dimethyl-17-(2-oxo-2H-pyran-5-yl)hexadecahydro-1H-cyclopenta[a]phenanthren-3-yl)piperazine-1-carboxamide] | > 1000 | > 7.70 | –
2 | C[C@]12CCC(N3CCCC3)C[C@H]1CC[C@@H]1[C@@H]2CC[C@]2(C)[C@@H](c3ccc(=O)oc3)CC[C@]12O (stereo partly drawn) [Compound C20, 5-((5R,8R,9S,10S,13R,14S,17R)-14-hydroxy-10,13-dimethyl-3-(pyrrolidin-1-yl)hexadecahydro-1H-cyclopenta[a]phenanthren-17-yl)-2H-pyran-2-one] | > 1000 | > 7.70 | –
3 | CN(CCO)C1CC[C@@]2(C)[C@H](CC[C@@H]3[C@@H]2CC[C@]2(C)[C@@H](c4ccc(=O)oc4)CC[C@]32O)C1 (stereo partly drawn) [Compound C32, 5-((5R,8R,9S,10S,13R,14S,17R)-14-hydroxy-3-((2-hydroxyethyl)(methyl)amino)-10,13-dimethylhexadecahydro-1H-cyclopenta[a]phenanthren-17-yl)-2H-pyran-2-one] | < 100 | 6.00 to 7.00 | –
4 | C[C@]12CCC(NC(=O)N3CCNCC3)C[C@H]1CC[C@@H]1[C@@H]2CC[C@]2(C)[C@@H](C3=CC(=O)OC3)CC[C@]12O (stereo partly drawn) [Compound C24, N-((5R,8R,9S,10S,13R,14S,17R)-14-hydroxy-10,13-dimethyl-17-(5-oxo-2,5-dihydrofuran-3-yl)hexadecahydro-1H-cyclopenta[a]phenanthren-3-yl)piperazine-1-carboxamide] | – | 7.00 to 7.70 | > 1000
5 | C[C@]12CCC(NCCN3CCOCC3)C[C@H]1CC[C@@H]1[C@@H]2CC[C@]2(C)[C@@H](c3ccc(=O)oc3)CC[C@]12O (stereo partly drawn) [Compound C18, 5-((5R,8R,9S,10S,13R,14S,17R)-14-hydroxy-10,13-dimethyl-3-((2-morpholinoethyl)amino)hexadecahydro-1H-cyclopenta[a]phenanthren-17-yl)-2H-pyran-2-one] | > 1000 | 6.00 to 7.00 | –
6 | C[C@]12CCC(N3CCNC(=O)C3)C[C@H]1CC[C@@H]1[C@@H]2CC[C@]2(C)[C@@H](c3ccc(=O)oc3)CC[C@]12O (stereo partly drawn) [Compound C19, 4-((5R,8R,9S,10S,13R,14S,17R)-14-hydroxy-10,13-dimethyl-17-(2-oxo-2H-pyran-5-yl)hexadecahydro-1H-cyclopenta[a]phenanthren-3-yl)piperazin-2-one] | 100 to 1000 (≈ 213 to 2130 µM) | 7.00 to 7.70 | –
7 | C[C@]12CC[C@H](NC(=O)N3CCOCC3)C[C@H]1CC[C@@H]1[C@@H]2CC[C@]2(C)[C@@H](c3ccc(=O)oc3)CC[C@]12O [Compound C02, N-((3S,5R,8R,9S,10S,13R,14S,17R)-14-hydroxy-10,13-dimethyl-17-(2-oxo-2H-pyran-5-yl)hexadecahydro-1H-cyclopenta[a]phenanthren-3-yl)morpholine-4-carboxamide] | < 100 | > 7.70 | –
8 | CC(C)[C@@H](N)C(=O)N(C)C1CC[C@@]2(C)[C@H](CC[C@@H]3[C@@H]2CC[C@]2(C)[C@@H](c4ccc(=O)oc4)CC[C@]32O)C1 (stereo partly drawn) [Compound C22, (2R)-2-amino-N-((5R,8R,9S,10S,13R,14S,17R)-14-hydroxy-10,13-dimethyl-17-(2-oxo-2H-pyran-5-yl)hexadecahydro-1H-cyclopenta[a]phenanthren-3-yl)-N,3-dimethylbutanamide] | > 1000 | 7.00 to 7.70 | –
9 | C[C@]12CCC(N3CCOCC3)C[C@H]1CC[C@@H]1[C@@H]2CC[C@]2(C)[C@@H](c3ccc(=O)oc3)CC[C@]12O (stereo partly drawn) [Compound C28, 5-((5R,8R,9S,10S,13R,14S,17R)-14-hydroxy-10,13-dimethyl-3-morpholinohexadecahydro-1H-cyclopenta[a]phenanthren-17-yl)-2H-pyran-2-one] | > 1000 | 6.00 to 7.00 | –
10 | C[C@]12CCC(NC(=O)N3CCOCC3)C[C@@]1(O)CC[C@@H]1[C@@H]2CC[C@]2(C)[C@@H](c3ccc(=O)oc3)CC[C@]12O (stereo partly drawn) [Compound C30, N-((5S,8R,9S,10R,13R,14S,17R)-5,14-dihydroxy-10,13-dimethyl-17-(2-oxo-2H-pyran-5-yl)hexadecahydro-1H-cyclopenta[a]phenanthren-3-yl)morpholine-4-carboxamide] | 100 to 1000 (≈ 194 to 1940 µM) | 7.00 to 7.70 | –
11 | C[C@]12CC[C@H](NC(=O)NCCN)C[C@H]1CC[C@@H]1[C@@H]2CC[C@]2(C)[C@@H](c3ccc(=O)oc3)CC[C@]12O [Compound C10, 1-(2-aminoethyl)-3-((3S,5R,8R,9S,10S,13R,14S,17R)-14-hydroxy-10,13-dimethyl-17-(2-oxo-2H-pyran-5-yl)hexadecahydro-1H-cyclopenta[a]phenanthren-3-yl)urea] | > 1000 | > 7.70 | –
12 | C[C@]12CCC(NCCN3CCCC3)C[C@H]1CC[C@@H]1[C@@H]2CC[C@]2(C)[C@@H](c3ccc(=O)oc3)CC[C@]12O (stereo partly drawn) [Compound C27, 5-((5R,8R,9S,10S,13R,14S,17R)-14-hydroxy-10,13-dimethyl-3-((2-(pyrrolidin-1-yl)ethyl)amino)hexadecahydro-1H-cyclopenta[a]phenanthren-17-yl)-2H-pyran-2-one] | > 1000 | > 7.70 | –
13 | C[C@]12CC[C@H](NC(=O)CN)C[C@H]1CC[C@@H]1[C@@H]2CC[C@]2(C)[C@@H](c3ccc(=O)oc3)CC[C@]12O [Compound C12, 2-amino-N-((3S,5R,8R,9S,10S,13R,14S,17R)-14-hydroxy-10,13-dimethyl-17-(2-oxo-2H-pyran-5-yl)hexadecahydro-1H-cyclopenta[a]phenanthren-3-yl)acetamide] | > 1000 | > 7.70 | –
14 | C[C@@H](N)C(=O)N[C@H]1CC[C@@]2(C)[C@H](CC[C@@H]3[C@@H]2CC[C@]2(C)[C@@H](c4ccc(=O)oc4)CC[C@]32O)C1 [Compound C26, (R)-2-amino-N-((3S,5R,8R,9S,10S,13R,14S,17R)-14-hydroxy-10,13-dimethyl-17-(2-oxo-2H-pyran-5-yl)hexadecahydro-1H-cyclopenta[a]phenanthren-3-yl)propanamide] | > 1000 | > 7.70 | –
